# Read-outs that look alike come from different tables or passages of the source.
# Assays:
# Test in all cases: KiNativ assay
# Format in all cases: binding
# [1] = molecular target: ACK (Homo sapiens (Human), UniProt Q07912); conditions: H929 live cell
# Description: (§1) Biochemical IC50s of the compounds of the present disclosure against various kinases were measured in a KiNativ assay. Compounds were screened in duplicate at 10 μM in H929 live cell. IC50 was measured via Mass spectroscopy (MS).
# [2] = molecular target: AKT1 (Homo sapiens (Human), UniProt P31749); conditions: H929 live cell
# Description: as §1
# [3] = tested on: AurA, AurB, AurC; conditions: H929 live cell
# Description: as §1
# [4] = molecular target: AurB (Homo sapiens (Human), UniProt Q96GD4); conditions: H929 live cell
# AurB, sequence (Q96GD4 whole entry): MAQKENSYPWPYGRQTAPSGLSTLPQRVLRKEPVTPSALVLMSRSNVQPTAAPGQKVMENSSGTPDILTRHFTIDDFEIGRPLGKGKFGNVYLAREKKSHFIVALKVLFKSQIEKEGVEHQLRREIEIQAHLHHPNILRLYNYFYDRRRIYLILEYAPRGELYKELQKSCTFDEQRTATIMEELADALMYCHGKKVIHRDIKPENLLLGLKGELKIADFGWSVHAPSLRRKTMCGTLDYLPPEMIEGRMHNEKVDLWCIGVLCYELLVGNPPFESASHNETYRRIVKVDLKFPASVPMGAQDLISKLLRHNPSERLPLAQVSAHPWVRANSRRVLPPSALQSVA
# Description: as §1
# [5] = molecular target: BRAF (Homo sapiens (Human), UniProt P15056); conditions: H929 live cell
# Description: as §1
# [6] = molecular target: CDK7 (Homo sapiens (Human), UniProt P50613); conditions: H929 live cell
# CDK7, sequence (P50613 whole entry): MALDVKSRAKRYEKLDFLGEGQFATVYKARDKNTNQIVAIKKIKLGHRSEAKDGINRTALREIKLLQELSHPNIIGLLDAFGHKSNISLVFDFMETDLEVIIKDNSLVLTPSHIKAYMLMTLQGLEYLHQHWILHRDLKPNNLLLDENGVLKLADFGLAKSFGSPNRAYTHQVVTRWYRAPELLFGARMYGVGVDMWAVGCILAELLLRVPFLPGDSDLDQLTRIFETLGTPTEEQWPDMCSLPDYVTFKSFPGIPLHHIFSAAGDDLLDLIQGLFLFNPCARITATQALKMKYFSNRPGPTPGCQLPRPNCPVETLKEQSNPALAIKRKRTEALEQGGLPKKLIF
# CDK7, sequence (P51946 whole entry partner): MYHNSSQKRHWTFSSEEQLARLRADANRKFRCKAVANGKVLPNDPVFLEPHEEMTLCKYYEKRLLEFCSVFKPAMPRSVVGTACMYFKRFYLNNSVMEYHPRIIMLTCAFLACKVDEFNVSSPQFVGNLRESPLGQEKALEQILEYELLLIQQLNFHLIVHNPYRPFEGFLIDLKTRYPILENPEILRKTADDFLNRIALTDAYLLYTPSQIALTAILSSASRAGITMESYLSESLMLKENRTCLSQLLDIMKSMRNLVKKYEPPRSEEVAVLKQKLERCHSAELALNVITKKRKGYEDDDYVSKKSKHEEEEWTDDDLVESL
# CDK7, sequence (P51948 whole entry partner): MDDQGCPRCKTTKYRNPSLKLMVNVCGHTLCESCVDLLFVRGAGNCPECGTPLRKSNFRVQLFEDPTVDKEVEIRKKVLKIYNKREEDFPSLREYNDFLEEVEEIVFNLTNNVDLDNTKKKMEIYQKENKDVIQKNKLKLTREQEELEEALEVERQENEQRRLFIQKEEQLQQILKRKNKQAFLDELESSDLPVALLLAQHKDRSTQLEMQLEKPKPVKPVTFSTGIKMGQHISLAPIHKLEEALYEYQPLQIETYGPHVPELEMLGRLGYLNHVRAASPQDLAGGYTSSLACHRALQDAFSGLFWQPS
# Description: as §1
# [7] = molecular target: CaMK2g (Homo sapiens (Human), UniProt Q13555); conditions: H929 live cell
# CaMK2g, sequence (Q13555 whole entry): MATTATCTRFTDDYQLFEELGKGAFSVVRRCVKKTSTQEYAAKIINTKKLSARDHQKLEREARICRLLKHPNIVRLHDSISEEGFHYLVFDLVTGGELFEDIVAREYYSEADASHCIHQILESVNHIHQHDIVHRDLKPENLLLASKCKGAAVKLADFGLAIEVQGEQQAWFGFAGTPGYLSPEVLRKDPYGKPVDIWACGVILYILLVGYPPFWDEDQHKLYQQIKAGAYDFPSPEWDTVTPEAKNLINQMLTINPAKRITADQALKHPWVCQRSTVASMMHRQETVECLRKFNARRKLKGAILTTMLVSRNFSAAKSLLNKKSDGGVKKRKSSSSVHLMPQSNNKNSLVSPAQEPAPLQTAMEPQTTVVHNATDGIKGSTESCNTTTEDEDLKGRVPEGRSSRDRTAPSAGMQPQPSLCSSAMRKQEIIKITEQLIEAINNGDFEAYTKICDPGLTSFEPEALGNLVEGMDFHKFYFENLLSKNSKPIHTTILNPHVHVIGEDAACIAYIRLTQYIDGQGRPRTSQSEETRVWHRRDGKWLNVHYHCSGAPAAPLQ
# Description: as §1
# [8] = molecular target: CaMKK2 (Homo sapiens (Human), UniProt Q96RR4); conditions: H929 live cell
# Description: as §1
# [9] = molecular target: Erk2 (Homo sapiens (Human), UniProt P28482); conditions: H929 live cell
# Erk2, sequence (P28482 whole entry): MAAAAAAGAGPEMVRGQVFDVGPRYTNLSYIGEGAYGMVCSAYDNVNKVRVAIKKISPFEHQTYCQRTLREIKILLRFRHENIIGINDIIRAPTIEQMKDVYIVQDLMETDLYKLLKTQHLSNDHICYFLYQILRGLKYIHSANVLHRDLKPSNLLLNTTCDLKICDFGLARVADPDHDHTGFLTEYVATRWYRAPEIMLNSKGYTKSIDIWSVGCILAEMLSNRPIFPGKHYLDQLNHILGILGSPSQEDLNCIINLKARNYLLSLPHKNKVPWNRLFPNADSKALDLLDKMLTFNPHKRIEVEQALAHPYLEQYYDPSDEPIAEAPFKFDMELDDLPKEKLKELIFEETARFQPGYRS
# Description: as §1
# [10] = molecular target: FRAP (Homo sapiens (Human), UniProt P42345); conditions: H929 live cell
# Description: as §1
# [11] = molecular target: GCK (Homo sapiens (Human), UniProt Q12851); conditions: H929 live cell
# GCK, sequence (Q12851 whole entry): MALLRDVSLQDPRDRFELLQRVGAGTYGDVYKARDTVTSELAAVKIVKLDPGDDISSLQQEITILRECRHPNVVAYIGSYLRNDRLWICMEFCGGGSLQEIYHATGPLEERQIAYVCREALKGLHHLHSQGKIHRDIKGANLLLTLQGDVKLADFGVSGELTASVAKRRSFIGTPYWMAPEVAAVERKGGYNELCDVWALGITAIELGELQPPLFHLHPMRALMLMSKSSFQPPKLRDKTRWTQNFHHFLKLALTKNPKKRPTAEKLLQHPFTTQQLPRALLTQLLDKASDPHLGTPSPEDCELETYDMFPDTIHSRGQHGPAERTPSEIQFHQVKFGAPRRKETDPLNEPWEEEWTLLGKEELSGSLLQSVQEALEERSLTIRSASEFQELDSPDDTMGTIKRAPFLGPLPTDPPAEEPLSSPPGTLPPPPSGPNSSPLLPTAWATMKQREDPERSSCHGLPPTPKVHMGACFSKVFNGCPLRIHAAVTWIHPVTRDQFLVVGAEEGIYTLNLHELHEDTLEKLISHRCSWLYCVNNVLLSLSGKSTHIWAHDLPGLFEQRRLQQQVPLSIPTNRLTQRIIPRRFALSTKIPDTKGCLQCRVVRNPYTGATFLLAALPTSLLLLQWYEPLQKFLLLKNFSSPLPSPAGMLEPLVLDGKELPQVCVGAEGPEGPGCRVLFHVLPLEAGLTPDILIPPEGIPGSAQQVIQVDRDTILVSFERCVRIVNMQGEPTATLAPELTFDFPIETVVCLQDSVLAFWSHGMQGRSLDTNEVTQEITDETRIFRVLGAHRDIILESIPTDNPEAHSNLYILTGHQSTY
# Description: as §1
# [12] = molecular target: GSK3B (Homo sapiens (Human), UniProt P49841); conditions: H929 live cell
# Description: as §1
# [13] = molecular target: MAP2K4 (Homo sapiens (Human), UniProt P45985); conditions: H929 live cell
# Description: as §1
# [14] = molecular target: MAP3K2 (Homo sapiens (Human), UniProt Q9Y2U5); conditions: H929 live cell
# Description: as §1
# [15] = tested on: MARK1, MARK2; conditions: H929 live cell
# Description: as §1
# [16] = tested on: MARK2, MARK3; conditions: H929 live cell
# Description: as §1
# [17] = molecular target: MLK3 (Homo sapiens (Human), UniProt Q16584); conditions: H929 live cell
# Description: as §1
# [18] = tested on: MST1, MST2; conditions: H929 live cell
# Description: as §1
# [19] = tested on: MST4; conditions: H929 live cell
# Description: as §1
# [20] = molecular target: PAN3 (Homo sapiens (Human), UniProt Q58A45); conditions: H929 live cell
# Description: as §1
# [21] = molecular target: PEK (Homo sapiens (Human), UniProt Q9NZJ5); conditions: H929 live cell
# PEK, sequence (Q9NZJ5 30-1116): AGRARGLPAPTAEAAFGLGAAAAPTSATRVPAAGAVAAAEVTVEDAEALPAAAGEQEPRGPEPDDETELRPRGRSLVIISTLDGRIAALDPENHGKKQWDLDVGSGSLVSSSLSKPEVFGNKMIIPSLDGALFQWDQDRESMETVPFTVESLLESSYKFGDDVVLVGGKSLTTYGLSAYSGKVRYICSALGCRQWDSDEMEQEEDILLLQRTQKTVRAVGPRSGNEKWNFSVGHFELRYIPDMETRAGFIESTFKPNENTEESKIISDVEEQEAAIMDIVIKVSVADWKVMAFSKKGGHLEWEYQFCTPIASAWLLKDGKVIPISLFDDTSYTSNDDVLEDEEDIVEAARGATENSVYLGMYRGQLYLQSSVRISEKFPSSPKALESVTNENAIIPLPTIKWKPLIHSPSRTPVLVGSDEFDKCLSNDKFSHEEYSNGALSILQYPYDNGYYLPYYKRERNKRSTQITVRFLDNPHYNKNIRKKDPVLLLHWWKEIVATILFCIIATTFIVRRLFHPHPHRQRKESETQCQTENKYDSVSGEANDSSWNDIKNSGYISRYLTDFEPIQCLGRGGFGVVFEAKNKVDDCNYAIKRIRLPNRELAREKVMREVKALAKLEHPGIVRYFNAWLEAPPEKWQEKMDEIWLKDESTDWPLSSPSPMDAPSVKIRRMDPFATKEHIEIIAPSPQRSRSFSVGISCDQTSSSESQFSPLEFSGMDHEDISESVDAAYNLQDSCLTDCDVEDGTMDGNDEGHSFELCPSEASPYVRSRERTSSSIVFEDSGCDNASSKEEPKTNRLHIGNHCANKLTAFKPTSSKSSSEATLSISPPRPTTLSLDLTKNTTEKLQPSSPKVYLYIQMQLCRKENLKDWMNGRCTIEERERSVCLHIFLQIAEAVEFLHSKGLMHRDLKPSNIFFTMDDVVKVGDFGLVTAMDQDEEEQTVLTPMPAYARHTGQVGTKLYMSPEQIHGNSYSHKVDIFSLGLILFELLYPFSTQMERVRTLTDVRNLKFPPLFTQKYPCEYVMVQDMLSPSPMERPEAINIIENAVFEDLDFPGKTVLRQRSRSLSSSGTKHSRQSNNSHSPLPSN
# Description: as §1
# [22] = molecular target: PIK3CB (Homo sapiens (Human), UniProt P42338); conditions: H929 live cell
# Description: as §1
# [23] = molecular target: PIK3CG (Homo sapiens (Human), UniProt P48736); conditions: H929 live cell
# Description: as §1
# [24] = molecular target: PKCi (Homo sapiens (Human), UniProt P41743); conditions: H929 live cell
# PKCi, sequence (P41743 whole entry): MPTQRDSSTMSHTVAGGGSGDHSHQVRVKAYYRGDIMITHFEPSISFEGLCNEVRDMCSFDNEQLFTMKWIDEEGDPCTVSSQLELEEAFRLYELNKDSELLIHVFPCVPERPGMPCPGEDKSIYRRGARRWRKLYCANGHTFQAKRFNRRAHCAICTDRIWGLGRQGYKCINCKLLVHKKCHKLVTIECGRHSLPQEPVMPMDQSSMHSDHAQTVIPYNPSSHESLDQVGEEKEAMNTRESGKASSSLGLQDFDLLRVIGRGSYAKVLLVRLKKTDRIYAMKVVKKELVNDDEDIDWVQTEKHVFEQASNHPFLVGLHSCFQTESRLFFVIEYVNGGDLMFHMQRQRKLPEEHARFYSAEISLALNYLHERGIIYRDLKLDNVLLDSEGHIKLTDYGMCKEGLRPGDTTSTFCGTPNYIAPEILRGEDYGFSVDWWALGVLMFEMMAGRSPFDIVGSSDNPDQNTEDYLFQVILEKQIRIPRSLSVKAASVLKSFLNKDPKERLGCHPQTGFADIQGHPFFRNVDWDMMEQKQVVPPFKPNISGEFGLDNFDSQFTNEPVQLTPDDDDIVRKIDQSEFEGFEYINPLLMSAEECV
# Description: as §1
# [25] = molecular target: PKCz (Homo sapiens (Human), UniProt Q05513); conditions: H929 live cell
# Description: as §1
# [26] = molecular target: PKD3 (Homo sapiens (Human), UniProt O94806); conditions: H929 live cell
# Description: as §1
# [27] = molecular target: PKR (Homo sapiens (Human), UniProt P19525); conditions: H929 live cell
# Description: as §1
# [28] = molecular target: PRP4 (Homo sapiens (Human), UniProt Q13523); conditions: H929 live cell
# Description: as §1
# [29] = molecular target: RSK2 domain2 (Homo sapiens (Human), UniProt P51812); conditions: H929 live cell
# Description: as §1
# [30] = molecular target: RSKL1 (Homo sapiens (Human), UniProt Q96S38); conditions: H929 live cell
# Description: as §1
# [31] = molecular target: SMG1 (Homo sapiens (Human), UniProt Q96Q15); conditions: H929 live cell
# Description: as §1
# [32] = molecular target: STLK3 (Homo sapiens (Human), UniProt Q9UEW8); conditions: H929 live cell
# Description: as §1
# [33] = molecular target: eEF2K (Homo sapiens (Human), UniProt O00418); conditions: H929 live cell
# Description: as §1
# [34] = molecular target: p38a (Homo sapiens (Human), UniProt Q16539); conditions: H929 live cell, read-out: % inhibition (range)
# How it was run: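 Screening used intact H929 cells treated with each compound at 10 μM in duplicate; KiNativ labelling followed, and MS quantitation yielded IC50.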
smiles,measurement,setting,value
"Nc1ncc(-c2cccc3ncsc23)cc1-c1ccc2c(c1)CCNC2=O [Compound I-13, 6-(2-amino-5-(benzo[d]thiazol-7-yl)pyridin-3-yl)-3,4-dihydroisoquinolin-1(2H)-one]",inhibition at 10 µM,[1]; read-out: % inhibition (range),0%
same,inhibition at 10 µM,[1]; read-out: inhibition (10 μM),23.3%
same,inhibition at 10 µM,[2]; read-out: % inhibition (range),0%
same,inhibition at 10 µM,[2]; read-out: inhibition (10 μM),26.4%
same,% inhibition (range),[3]; 10 μM,0.0%
same,inhibition (10 μM),[3],17.7%
same,inhibition at 10 µM,[4]; read-out: % inhibition (range),0%
same,inhibition at 10 µM,[4]; read-out: inhibition (10 μM),20.7%
same,inhibition at 10 µM,[5]; read-out: % inhibition (range),0%
same,inhibition at 10 µM,[5]; read-out: inhibition (10 μM),10.2%
same,inhibition at 10 µM,[6]; read-out: % inhibition (range),0%
same,inhibition at 10 µM,[6]; read-out: inhibition (10 μM),32.9%
same,inhibition at 10 µM,[7]; read-out: % inhibition (range),0%
same,inhibition at 10 µM,[7]; read-out: inhibition (10 μM),-13.6%
same,inhibition at 10 µM,[8]; read-out: % inhibition (range),50 to 75%
same,inhibition at 10 µM,[8]; read-out: inhibition (10 μM),74.9%
same,inhibition at 10 µM,[9]; read-out: % inhibition (range),50 to 75%
same,inhibition at 10 µM,[9]; read-out: inhibition (10 μM),74.6%
same,inhibition at 10 µM,[10]; read-out: % inhibition (range),0%
same,inhibition at 10 µM,[10]; read-out: inhibition (10 μM),32.5%
same,inhibition at 10 µM,[11]; read-out: % inhibition (range),75 to 90%
same,inhibition at 10 µM,[11]; read-out: inhibition (10 μM),77.3%
same,inhibition at 10 µM,[12]; read-out: % inhibition (range),75 to 90%
same,inhibition at 10 µM,[12]; read-out: inhibition (10 μM),88.4%
same,inhibition at 10 µM,[13]; read-out: % inhibition (range),35 to 50%
same,inhibition at 10 µM,[13]; read-out: inhibition (10 μM),48.2%
same,inhibition at 10 µM,[14]; read-out: % inhibition (range),0%
same,inhibition at 10 µM,[14]; read-out: inhibition (10 μM),-23.5%
same,% inhibition (range),[15]; 10 μM,0.0%
same,inhibition (10 μM),[15],2.9%
same,% inhibition (range),[16]; 10 μM,0.0%
same,inhibition (10 μM),[16],14.8%
same,inhibition at 10 µM,[17]; read-out: % inhibition (range),0%
same,inhibition at 10 µM,[17]; read-out: inhibition (10 μM),-3.9%
same,% inhibition (range),[18]; 10 μM,75-90%
same,inhibition (10 μM),[18],89.4%
same,% inhibition (range),[19]; 10 μM,0.0%
same,inhibition (10 μM),[19],29.3%
same,inhibition at 10 µM,[20]; read-out: % inhibition (range),0%
same,inhibition at 10 µM,[20]; read-out: inhibition (10 μM),-4%
same,inhibition at 10 µM,[21]; read-out: % inhibition (range),0%
same,inhibition at 10 µM,[21]; read-out: inhibition (10 μM),-40.8%
same,inhibition at 10 µM,[22]; read-out: % inhibition (range),0%
same,inhibition at 10 µM,[22]; read-out: inhibition (10 μM),23.1%
same,inhibition at 10 µM,[23]; read-out: % inhibition (range),0%
same,inhibition at 10 µM,[23]; read-out: inhibition (10 μM),12.4%
same,inhibition at 10 µM,[24]; read-out: % inhibition (range),0%
same,inhibition at 10 µM,[24]; read-out: inhibition (10 μM),21.4%
same,inhibition at 10 µM,[25]; read-out: % inhibition (range),0%
same,inhibition at 10 µM,[25]; read-out: inhibition (10 μM),15.5%
same,inhibition at 10 µM,[26]; read-out: % inhibition (range),50 to 75%
same,inhibition at 10 µM,[26]; read-out: inhibition (10 μM),69.4%
same,inhibition at 10 µM,[27]; read-out: % inhibition (range),0%
same,inhibition at 10 µM,[27]; read-out: inhibition (10 μM),-21.7%
same,inhibition at 10 µM,[28]; read-out: % inhibition (range),50 to 75%
same,inhibition at 10 µM,[28]; read-out: inhibition (10 μM),73.4%
same,inhibition at 10 µM,[29]; read-out: % inhibition (range),0%
same,inhibition at 10 µM,[29]; read-out: inhibition (10 μM),3.8%
same,inhibition at 10 µM,[30]; read-out: % inhibition (range),0%
same,inhibition at 10 µM,[30]; read-out: inhibition (10 μM),1.6%
same,inhibition at 10 µM,[31]; read-out: % inhibition (range),50 to 75%
same,inhibition at 10 µM,[31]; read-out: inhibition (10 μM),61%
same,inhibition at 10 µM,[32]; read-out: % inhibition (range),0%
same,inhibition at 10 µM,[32]; read-out: inhibition (10 μM),1.1%
same,inhibition at 10 µM,[33]; read-out: % inhibition (range),0%
same,inhibition at 10 µM,[33]; read-out: inhibition (10 μM),-45.5%
same,inhibition at 10 µM,[34],0%

# Reference: patent US10710978B2, “STK4 inhibitors for treatment of hematologic malignancies” (Dana-Farber Cancer Institute, Inc., priority 2015, dated 2020)
